Measurements reported in PMC7127696 (Bioorganic & Medicinal Chemistry, 2015).
Where two headings read alike, the source gives them in different places.

Legend:
Sindbis virus = test: CPE reduction assay, Sindbis virus in Vero cells; assay type: cell-based; details: for EC50: Sindbis virus, Vero, read-out: Antiviral EC50 value, Sindbis virus
[1] = system: Respiratory syncytial virus; test: CPE reduction assay, respiratory syncytial virus in HeLa cells; assay type: cell-based; details: for Selectivity index (ratio of MCC to antiviral EC50), Respiratory syncytial virus: value in square brackets
Reovirus-1 = test: CPE reduction assay, reovirus-1 in Vero cells; assay type: cell-based; details: for EC50: Vero, read-out: Antiviral EC50 value, Reovirus-1
Para-influenza-3 virus = test: CPE reduction assay, para-influenza-3 virus in Vero cells; assay type: cell-based; details: for EC50: Vero, read-out: Antiviral EC50 value, Para-influenza-3 virus
[2] = system: HEL: human embryonic lung fibroblast cells; details: microscopy
[3] = system: MDCK: Madin-Darby canine kidney cells; details: microscopy
HeLa cells = details: microscopy
Punta Toro virus = test: CPE reduction assay, Punta Toro virus in Vero cells; assay type: cell-based
Vero cells = details: microscopy
[4] = system: Vesicular stomatitis virus; assay type: cell-based
Coxsackie B4 virus [5] = test: CPE reduction assay, Coxsackie B4 virus in Vero cells; assay type: cell-based
Coxsackie B4 virus [6] = test: CPE reduction assay, Coxsackie B4 virus in HeLa cells; assay type: cell-based
[7] = Vero cells, CPE inhibition, microscopy, mean ± SEM of three tests
[8] = Vero cells, value in square brackets
[9] = CPE inhibition, microscopy, mean ± SEM of three tests
[10] = Vero cells, CPE inhibition, microscopy

Molecule	EC50 (Reovirus-1)	EC50 (Para-influenza-3 virus)	MCC (compound concentration causing minimal changes in cell morphology) [2] [μg/mL]	MCC (compound concentration causing minimal changes in cell morphology) [3] [μg/mL]	MCC (compound concentration causing minimal changes in cell morphology) (HeLa cells) [μg/mL]	MCC (compound concentration causing minimal changes in cell morphology) (Vero cells)	also measured
CCNC(=S)NNC(=O)c1[nH]c2ccc(F)cc2c1-c1ccccc1 [Compound 6b, 4-Ethyl-1-((5-fluoro-3-phenyl-1H-indol-2-yl)carbonyl)-3-thiosemicarbazide]	> 100 µg/mL	> 100 µg/mL					EC50 (Sindbis virus): 3.2 ± 0.8 µg/mL; Selectivity index (ratio of MCC to antiviral EC50), Respiratory syncytial virus [1]: ≥ 5
CNC(=S)NNC(=O)c1[nH]c2ccc(F)cc2c1-c1ccccc1 [Compound 6a, 1-((5-Fluoro-3-phenyl-1H-indol-2-yl)carbonyl)-4-methyl-3-thiosemicarbazide]	> 100 µg/mL	> 100 µg/mL					
O=C(N/N=C1\SCC(=O)N1CCc1ccccc1)c1[nH]c2ccc(F)cc2c1-c1ccccc1 [Compound 7g, 5-Fluoro-N′-(4-oxo-3-phenethyl-1,3-thiazolidinon-2-ylidene)-3-phenyl-1H-indol-2-carbohydrazide]	> 100 µg/mL	> 100 µg/mL	>10	>10	100		
CCCCNC(=S)NNC(=O)c1[nH]c2ccc(F)cc2c1-c1ccccc1 [Compound 6e, 4-Butyl-1-((5-fluoro-3-phenyl-1H-indol-2-yl)carbonyl)-3-thiosemicarbazide]	> 100 µg/mL	> 100 µg/mL	>10				
O=C(NNC(=S)NCc1ccccc1)c1[nH]c2ccc(F)cc2c1-c1ccccc1 [Compound 6f, 4-Benzyl-1-((5-fluoro-3-phenyl-1H-indol-2-yl)carbonyl)-3-thiosemicarbazide]	> 100 µg/mL	> 100 µg/mL	>10	>10			
CCN1C(=O)CS/C1=N\NC(=O)c1[nH]c2ccc(F)cc2c1-c1ccccc1 [Compound 7b, N′-(3-Ethyl-4-oxo-1,3-thiazolidinon-2-ylidene)-5-fluoro-3-phenyl-1H-indol-2-carbohydrazide]	> 100 µg/mL	> 100 µg/mL	>100	100	>100		
NC(=O)c1ncn([C@@H]2O[C@H](CO)[C@@H](O)[C@H]2O)n1 [Ribavirin, ribavirin, reference compound]	> 250 µM	> 250 µM					EC50 (Sindbis virus): 250 µM; EC50 (Punta Toro virus; Punta Toro virus, Vero, read-out: Antiviral EC50 value, Punta Toro virus): 50 µM; MCC (compound concentration causing minimal changes in cell morphology) (HeLa cells; ribavirin data in μM): >250 μM; MCC (compound concentration causing minimal changes in cell morphology) (Vero cells; ribavirin data in μM): >250 μM
CCCCN1C(=O)CS/C1=N\NC(=O)c1[nH]c2ccc(F)cc2c1-c1ccccc1 [Compound 7e, N′-(3-Butyl-4-oxo-1,3-thiazolidinon-2-ylidene)-5-fluoro-3-phenyl-1H-indol-2-carbohydrazide]	> 100 µg/mL	> 100 µg/mL	>10	>10	>100	>10 μg/mL	
CCCNC(=S)NNC(=O)c1[nH]c2ccc(F)cc2c1-c1ccccc1 [Compound 6c, 1-((5-Fluoro-3-phenyl-1H-indol-2-yl)carbonyl)-4-propyl-3-thiosemicarbazide]	> 100 µg/mL	> 100 µg/mL				100 μg/mL	Selectivity index (ratio of MCC to antiviral EC50), Respiratory syncytial virus [1]: ≥ 9
CN1C(=O)CS/C1=N\NC(=O)c1[nH]c2ccc(F)cc2c1-c1ccccc1 [Compound 7a, 5-Fluoro-N′-(3-methyl-4-oxo-1,3-thiazolidinon-2-ylidene)-3-phenyl-1H-indol-2-carbohydrazide]	> 100 µg/mL	> 100 µg/mL	>100	100	100		
dextran sulfate [DS-5000]					>100	>100 μg/mL	Antiviral EC50 value, Sindbis virus (Sindbis virus; [7]): 68 ± 32 µg/mL; Selectivity index (ratio of MCC to antiviral EC50), Sindbis virus (Sindbis virus; [8]): > 1.5; Antiviral EC50 value, Respiratory syncytial virus [1, 9]: 5.3 ± 3.3 µg/mL; Selectivity index (ratio of MCC to antiviral EC50), Respiratory syncytial virus [1]: > 19; Antiviral EC50 value, Vesicular stomatitis virus [4]: 8.0 ± 3.1 [>12] μg/mL; Selectivity index (ratio of MCC to antiviral EC50), Vesicular stomatitis virus [4]: 8.0 ± 3.1 [>12]; Antiviral EC50 value, Punta Toro virus (Punta Toro virus; [7]): 20 ± 0 µg/mL; Selectivity index (ratio of MCC to antiviral EC50), Punta Toro virus (Punta Toro virus; [8]): > 5; Antiviral EC50 value, Coxsackie B4 virus (Coxsackie B4 virus [5]; [9]): 40 ± 10 µg/mL; Selectivity index (ratio of MCC to antiviral EC50), Coxsackie B4 virus (Coxsackie B4 virus [5]; value in square brackets): > 2.5; Antiviral EC50 value, Coxsackie B4 virus (Coxsackie B4 virus [6]; [9]): ≥ 4 µg/mL; Selectivity index (ratio of MCC to antiviral EC50), Coxsackie B4 virus (Coxsackie B4 virus [6]; value in square brackets): ≥ 25; Antiviral EC50 value, Reovirus-1 (Reovirus-1; [10]): >100 µg/mL; Antiviral EC50 value, Para-influenza-3 virus (Para-influenza-3 virus; [10]): >100 µg/mL
O=C(NNC(=S)NCCc1ccccc1)c1[nH]c2ccc(F)cc2c1-c1ccccc1 [Compound 6g, 1-((5-Fluoro-3-phenyl-1H-indol-2-yl)carbonyl)-4-phenethyl-3-thiosemicarbazide]	> 100 µg/mL	> 100 µg/mL					
CCCN1C(=O)CS/C1=N\NC(=O)c1[nH]c2ccc(F)cc2c1-c1ccccc1 [Compound 7c, 5-Fluoro-N′-(4-oxo-3-propyl-1,3-thiazolidinon-2-ylidene)-3-phenyl-1H-indol-2-carbohydrazide]	> 100 µg/mL	> 100 µg/mL	>100	>100	>100	>100 μg/mL	
O=C(N/N=C1\SCC(=O)N1Cc1ccccc1)c1[nH]c2ccc(F)cc2c1-c1ccccc1 [Compound 7f, N′-(3-Benzyl-4-oxo-1,3-thiazolidinon-2-ylidene)-5-fluoro-3-phenyl-1H-indol-2-carbohydrazide]	> 100 µg/mL	> 100 µg/mL	>10	>10	>100	⩾10 μg/mL	
C=CCNC(=S)NNC(=O)c1[nH]c2ccc(F)cc2c1-c1ccccc1 [Compound 6d, 4-Allyl-1-((5-fluoro-3-phenyl-1H-indol-2-yl)carbonyl)-3-thiosemicarbazide]	> 100 µg/mL	> 100 µg/mL					Selectivity index (ratio of MCC to antiviral EC50), Respiratory syncytial virus [1]: ≥ 5
C=CCN1C(=O)CS/C1=N\NC(=O)c1[nH]c2ccc(F)cc2c1-c1ccccc1 [Compound 7d, N′-[(2Z)-3-Allyl-4-oxo-1,3-thiazolidinon-2-ylidene]-5-fluoro-3-phenyl-1H-indol-2-carbohydrazide]	> 100 µg/mL	> 100 µg/mL	>100	100	>100	>100 μg/mL	
